Tests used:
[1] = Flavin photostability in PBS under white LED irradiation; type: physicochemical; settings: 30 min, 100 µM, pH 7.4
Source text: After successful synthesis and initial characterisation, we monitored the photostability of the compounds in PBS (1x, pH 7.4) which was used for PDI assays as distilled or ultrapure water destabilises bacterial cells and coronaviruses through osmotic pressures[37],[38], thereby augmenting inactivation results. […] This yields lumichrome as the major degradation product which can only act as a PS under UV-irradiation[40]. […] However, it appears that guanidino substitution in our case improves the photostability.
Figure S4: (A) Flavin photostability (100 µM) in PBS (0.1% DMSO) irradiated with 1x105 lx (35 mW/cm2) where A
= Abs at 450 nm and A0 = Abs at 450 nm at 0 min.
photostability. Experiments were performed using a quartz cuvette and measured using an Agilent Cary 300
(1 picture or pasted object on this page, not shown here)

E. coli BL21(DE3) = assay: Photodynamic inactivation of E. coli (CFU counting); type: cell-based
Experimental: After an overnight aerobic culture in LB broth at 37 °C with shaking at 225 rpm, the resulting E. coli were centrifuged at 2,500 rpm for 10 min. The pellet was resuspended in PBS (Sigma, 1x, pH 7.4) to an OD600 value of 0.6 (~ 1 × 10^8 bacteria per ml). […] Aliquots of negative controls (0.5% DMSO in PBS; PBS only) and 100 μM flavin-bacteria samples were covered in foil to remain in dark, while all samples were plated onto a 96-well plate and exposed to white LED irradiation (1 × 10^5 lx) for 15 min. After 15 min of irradiation or darkness, each sample was serially diluted to its respective, appropriate dilution and plated onto an LB agar plate with 50 μg/mL kanamycin. Plates were incubated overnight at 37 °C in the dark. Survival of bacteria was determined by counting colony forming units (CFUs) the next day.
For time point data, aliquots of 100 μM flavin-bacteria solutions were taken at 5-min increments of irradiation (0, 5, 10, and 15 min) and evaluated similarly as above. Time point experiment with one-minute increments, between 0 and 5 min, were conducted for 100 μM F4-bacteria samples.

pDNA (pUC18) = assay: pDNA photocleavage, agarose gel electrophoresis; type: biochemical; settings: 10 µM flavin, 15 min white LED, PBS 0.1% DMSO
Experimental: (§1) A 20 µL aliquot was taken after 15 min of white LED irradiation (1 × 10^5 lx). Prior to loading, 2 µL of 6X Orange-G loading dye in glycerol were added to the aliquot and mixed vigorously. The gel was electrophoresed at 80 V for 35 min with 1% agarose gels in 1X Tris–acetate-EDTA (TAE) buffer. Gels were then imaged in a Syngene G:BOX Gel Documentation System and band % quantification was performed using ImageJ Gel Analyzer.

[2] = test system: murine hepatitis virus A59 strain (MHV-A59); assay: Photodynamic inactivation of MHV-A59 (TCID50 assay in 17Cl-1 cells); type: cell-based
Experimental: The efficacy of the flavins were enumerated utilizing modified methods from ISO 18,184 and Leibowitz et al.[56] […] 100 µM working stock solutions were then created by diluting each DMSO solution into PBS. To control for the effect of DMSO on MHV-A59, DMSO was diluted into PBS at the same concentration. A white light apparatus was set up to cover a 4 × 5 (row x column) area of a 96-well plate with the same level of light intensity (1 × 10^5 lx). The stock solutions were then diluted in replicates of four to a total of 180 µl in PBS at 1, 5, and 10 µM concentrations for each sample. Virus stocks of MHV-A59 were thawed on ice prior to use. 20 µl of MHV-A59 stock (1.4 × 10^9 PFU/ml) was then mixed into each well, and the 4 × 5 well matrix was treated with the light or incubated in the dark at room temperature for a specified time (5, 10, or 15 min).
After treatment, the samples were mixed into 320 µl of Gibco Difco™ Beef Extract (1.5% w/v beef extract in ddH2O; Life Technologies) and rolled for 15 min to chelate any free ions in the solution. The samples then were serially diluted (10^0–10^–7) in infectivity media (Dulbecco’s modified Eagle’s medium low glucose 1 g/L (DMEM, Life Technologies) supplemented with 2.5% fetal bovine serum (Merck), 3% tryptose phosphate broth (Merck), 1 × non-essential amino acids (Gibco), 1 × antibiotic–antimycotic (Thermo Fisher Scientific) and 1 × L-Glutamine (Gibco]) and added in triplicate to 17Cl-1 cell plates. For each sample or control there were 4 replicate treatments (in light or dark); each treatment replicate was plated in triplicate. Infected 17Cl-1 plates were incubated at 37 °C in a 5% CO2 atmosphere for 24 h. Plates were scored for cytopathic effect (CPE) by microscopy and viral titres were determined by the Reed and Muench 50% tissue culture infectious dose (TCID50) end point method. Outliers were removed from the four replicates using an outlier test. The full protocol was repeated in triplicate on different days to account for any variability in the assay.

[3] = test system: ssRNA (EGFP-encoding mRNA, ~ 1 k nt); assay: ssRNA photocleavage, agarose gel electrophoresis; type: biochemical; settings: 10 µM flavin, 15 min white LED, PBS 0.1% DMSO
Experimental: as §1

WI-38 cells [4] = assay: 24 h MTS cytotoxicity assay, WI-38; type: cell-based; settings: Homo sapiens, 24 h incubation, dark
Experimental: (§2) The MTS tetrazolium compound is reduced by cells into a coloured formazan product which is soluble in cell culture media. It can be detected colorimetrically between 450 and 540 nm with the measured absorbance directly proportional to the amount of metabolically active cells in culture. Cells were seeded into clear 96-well plates containing 10,000 cells/well in 100 µL complete growth medium and cultured for 24 h at 37 °C and 5% CO2. […] After further 24 h incubation at 37 °C and 5% CO2, 20 µL of CelTiter 96® AQueous One Solution (Promega) was added into each well and incubated at 37 °C, 5% CO2 for 1–4 h, according to the manufacturer’s instruction. The absorbance of each well was measured at 490 nm using a plate reader (Spark, Tecan). Control measurements included negative control of cells with DMEM, cells with DMEM containing 0.1% DMSO, cell-free culture media (blank) and cell-free sample dilutions in culture media to evaluate potential sample interferences with MTS assay. All experiments were conducted in biological triplicates. The percentage cell viability was calculated according to Eq. (1):1 Cell viability(%)=100×Absorbanceoftreatedcells-Absorbanceofblank/Absorbanceofcontrol-Absorbanceofblank

17Cl-1 cells = assay: 24 h MTS cytotoxicity assay, 17Cl-1; type: cell-based, murine; settings: Mus musculus, 24 h incubation, dark
Experimental: as §2

WI-38 cells [5] = assay: Light-induced toxicity towards WI-38 cells (MTS); type: cell-based, human; settings: 10 μM flavin, 15 min irradiation 1 × 10^5 lx
Experimental: An adapted method reported by Maisch et al. was used to conduct phototoxicity studies on human lung fibroblasts, WI-38[28]. Cells were seeded into 96-well plates containing 10,000 cells/well in 100 µL complete growth medium and cultured for 24 h at 37 °C and 5% CO2. […] The resulting mixtures were then incubated in the dark for 5 min and then either illuminated with 1 × 10^5 lx for 5, 10 or 15 min, or incubated further in the dark for 15 min (dark control). After irradiation, the flavin solutions were removed and 100 μL of DMEM with 10% FBS and without phenol red was added to each well and incubated over night at 37 °C and 5% CO2. Subsequently, 20 µL of MTS reagent was added into each well and incubated at 37 °C and 5% CO2 for 1–4 h and the absorbance of each well was measured at 490 nm using a plate reader. Control measurements included negative control untreated cells with light and in the dark containing 0.1% DMSO and cells treated with flavins for 15 min in the dark. All experiments were conducted in biological triplicates. The percentage cell viability was calculated according to Eq. (1).

[6] = 5 µM flavin, 10 min irradiation

## Cc1cc2nc3c(=O)[nH]c(=O)nc-3n(C[C@H](O)[C@H](O)[C@H](O)CO)c2cc1C [Riboflavin, reference compound]
[1]
  photodecomposition / degradation: 80%
E. coli BL21(DE3); 1 µM flavin, 15 min irradiation (31.5 J/cm^2)
  E. coli log10 reduction of CFUs: 0.2 log10
E. coli BL21(DE3); 1 µM flavin, 15 min irradiation (31.5 J/cm^2), listed as riboflavin
  E. coli log10 reduction of CFUs: no inactivation
E. coli BL21(DE3); 10 µM flavin, 15 min irradiation
  E. coli log10 reduction of CFUs: 0.2 log10
E. coli BL21(DE3); 100 µM flavin, 5 min irradiation (10.5 J/cm^2)
  E. coli log10 reduction of CFUs: 0.0 log10
E. coli BL21(DE3); 100 µM flavin, 10 min irradiation
  E. coli log10 reduction of CFUs: 0.0 log10
E. coli BL21(DE3); 100 µM flavin, 15 min irradiation
  E. coli log10 reduction of CFUs: 0.0 log10
E. coli BL21(DE3); 100 µM flavin, 15 min irradiation, listed as riboflavin
  E. coli log10 reduction of CFUs: no activity
pDNA (pUC18)
  % NC (nicked coiled pDNA after photocleavage): 11%
[2]; 1 µM flavin, 10 min irradiation (21.0 J/cm^2)
  MHV-A59 log10 reduction in viral titre: 1.2 log10
[2]; [6]
  MHV-A59 log10 reduction in viral titre: 3.2 log10
  MHV-A59 viral load reduction: > 99.9%
[2]; 10 µM flavin, 5 min irradiation (10.5 J/cm^2)
  MHV-A59 log10 reduction in viral titre: 2.7 log10
[2]; 10 µM flavin, 10 min irradiation
  MHV-A59 log10 reduction in viral titre: 3.4 log10
[2]; 10 µM flavin, 15 min irradiation (31.5 J/cm^2)
  MHV-A59 log10 reduction in viral titre: 3.7 log10
[3]
  % cleaved ssRNA: 28%
WI-38 cells [4]
  IC50: > 100 µM
17Cl-1 cells
  IC50: > 100 µM
WI-38 cells [5]
  reduction in cell viability (light-induced toxicity): no decrease in cell viability

— article PMC9022420 (Scientific Reports, 2022)
